Results: patent US8192962B2, “Processes for detecting toxic substances” (Daikin Industries, Ltd., priority 2001, dated 2012)

Test system: Metabolism protein genes
Experiment: DNA chip mRNA expression in yeast, metabolism protein genes (Table 7)
Type: cell-based, Saccharomyces cerevisiae S288C
Outline: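 Values are treated/untreated fluorescence ratios from a whole-genome yeast DNA chip hybridized over 12 hours at 65° C with Cy3- or Cy5-labelled cDNA from poly(A) mRNA. Log-phase S288C yeast in YPD at 25° C had received a single toxic chemical for two hours, dosed to slow growth without killing.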

Compound: CCCCCCCCCCCCc1ccc(S(=O)(=O)[O-])cc1.[Na+] [(17), sodium dodecylbenzosulfonate]
- The level of expressed mRNA in the presence of chemical substance/The level of expressed mRNA in the absence of chemical substance (yeast gene YJR155W): 1.3
- The level of expressed mRNA in the presence of chemical substance/The level of expressed mRNA in the absence of chemical substance (yeast gene YKL035W): 1.0
- level of expressed mRNA in the presence/in the absence of chemical substance (yeast gene YKL060C): 1.2
- The level of expressed mRNA in the presence of chemical substance/The level of expressed mRNA in the absence of chemical substance (yeast gene YKL091C): 1.4
- The level of expressed mRNA in the presence of chemical substance/The level of expressed mRNA in the absence of chemical substance (yeast gene YKL104C): 1.0
- level of expressed mRNA in the presence/in the absence of chemical substance (yeast gene YKL148C): 0.8
- The level of expressed mRNA in the presence of chemical substance/The level of expressed mRNA in the absence of chemical substance (yeast gene YKL152C): 1.1
- level of expressed mRNA in the presence/in the absence of chemical substance (yeast gene YKL157W): 1.2
- The level of expressed mRNA in the presence of chemical substance/The level of expressed mRNA in the absence of chemical substance (yeast gene YKL213C): 1.4
- The level of expressed mRNA in the presence of chemical substance/The level of expressed mRNA in the absence of chemical substance (yeast gene YKL215C): 0.8
- level of expressed mRNA in the presence/in the absence of chemical substance (yeast gene YKR034W): 0.8
- The level of expressed mRNA in the presence of chemical substance/The level of expressed mRNA in the absence of chemical substance (yeast gene YLL058W): 1.4
- level of expressed mRNA in the presence/in the absence of chemical substance (yeast gene YLR006C): 1.6
- level of expressed mRNA in the presence/in the absence of chemical substance (yeast gene YLR044C): 0.9
- level of expressed mRNA in the presence/in the absence of chemical substance (yeast gene YLR056W): 1.1
- level of expressed mRNA in the presence/in the absence of chemical substance (yeast gene YLR058C): 0.8
- level of expressed mRNA in the presence/in the absence of chemical substance (yeast gene YLR081W): 0.7
- level of expressed mRNA in the presence/in the absence of chemical substance (yeast gene YLR089C): 1.2
- The level of expressed mRNA in the presence of chemical substance/The level of expressed mRNA in the absence of chemical substance (yeast gene YLR180W): 0.8
- The level of expressed mRNA in the presence of chemical substance/The level of expressed mRNA in the absence of chemical substance (yeast gene YLR273C): 1.0
- level of expressed mRNA in the presence/in the absence of chemical substance (yeast gene YLR284C): 2.9
- The level of expressed mRNA in the presence of chemical substance/The level of expressed mRNA in the absence of chemical substance (yeast gene YLR299W): 1.3
- The level of expressed mRNA in the presence of chemical substance/The level of expressed mRNA in the absence of chemical substance (yeast gene YLR300W): 0.7
- level of expressed mRNA in the presence/in the absence of chemical substance (yeast gene YLR304C): 0.5
- The level of expressed mRNA in the presence of chemical substance/The level of expressed mRNA in the absence of chemical substance (yeast gene YLR307W): 1.1
- The level of expressed mRNA in the presence of chemical substance/The level of expressed mRNA in the absence of chemical substance (yeast gene YLR348C): 1.1
- level of expressed mRNA in the presence/in the absence of chemical substance (yeast gene YLR354C): 1.0
- level of expressed mRNA in the presence/in the absence of chemical substance (yeast gene YLR372W): 0.5
- level of expressed mRNA in the presence/in the absence of chemical substance (yeast gene YML022W): 0.5
- The level of expressed mRNA in the presence of chemical substance/The level of expressed mRNA in the absence of chemical substance (yeast gene YML054C): 1.1
- The level of expressed mRNA in the presence of chemical substance/The level of expressed mRNA in the absence of chemical substance (yeast gene YML070W): 1.2
- The level of expressed mRNA in the presence of chemical substance/The level of expressed mRNA in the absence of chemical substance (yeast gene YML100W): 1.0
- The level of expressed mRNA in the presence of chemical substance/The level of expressed mRNA in the absence of chemical substance (yeast gene YMR008C): 3.0
- level of expressed mRNA in the presence/in the absence of chemical substance (yeast gene YMR011W): 1.3
- level of expressed mRNA in the presence/in the absence of chemical substance (yeast gene YMR015C): 1.0
- The level of expressed mRNA in the presence of chemical substance/The level of expressed mRNA in the absence of chemical substance (yeast gene YMR020W): 2.3
- level of expressed mRNA in the presence/in the absence of chemical substance (yeast gene YMR083W): 0.9
- The level of expressed mRNA in the presence of chemical substance/The level of expressed mRNA in the absence of chemical substance (yeast gene YMR105C): 1.6
- The level of expressed mRNA in the presence of chemical substance/The level of expressed mRNA in the absence of chemical substance (yeast gene YMR189W): 1.0
- level of expressed mRNA in the presence/in the absence of chemical substance (yeast gene YMR205C): 0.6
- level of expressed mRNA in the presence/in the absence of chemical substance (yeast gene YMR261C): 0.7
- The level of expressed mRNA in the presence of chemical substance/The level of expressed mRNA in the absence of chemical substance (yeast gene YMR271C): 1.3
- The level of expressed mRNA in the presence of chemical substance/The level of expressed mRNA in the absence of chemical substance (yeast gene YMR296C): 0.8
- level of expressed mRNA in the presence/in the absence of chemical substance (yeast gene YMR323W): 1.1
- The level of expressed mRNA in the presence of chemical substance/The level of expressed mRNA in the absence of chemical substance (yeast gene YNL012W): 1.3
- level of expressed mRNA in the presence/in the absence of chemical substance (yeast gene YNL025C): 0.7
- The level of expressed mRNA in the presence of chemical substance/The level of expressed mRNA in the absence of chemical substance (yeast gene YNL045W): 1.1
- The level of expressed mRNA in the presence of chemical substance/The level of expressed mRNA in the absence of chemical substance (yeast gene YNL104C): 0.9
- The level of expressed mRNA in the presence of chemical substance/The level of expressed mRNA in the absence of chemical substance (yeast gene YNL106C): 1.1
- The level of expressed mRNA in the presence of chemical substance/The level of expressed mRNA in the absence of chemical substance (yeast gene YNL169C): 1.1
- level of expressed mRNA in the presence/in the absence of chemical substance (yeast gene YNL192W): 2.3
- The level of expressed mRNA in the presence of chemical substance/The level of expressed mRNA in the absence of chemical substance (yeast gene YNL231C): 3.1
- The level of expressed mRNA in the presence of chemical substance/The level of expressed mRNA in the absence of chemical substance (yeast gene YNL322C): 0.9
- The level of expressed mRNA in the presence of chemical substance/The level of expressed mRNA in the absence of chemical substance (yeast gene YNL331C): 1.7
- The level of expressed mRNA in the presence of chemical substance/The level of expressed mRNA in the absence of chemical substance (yeast gene YNL332W): 1.0
- The level of expressed mRNA in the presence of chemical substance/The level of expressed mRNA in the absence of chemical substance (yeast gene YNR019W): 2.4
- The level of expressed mRNA in the presence of chemical substance/The level of expressed mRNA in the absence of chemical substance (yeast gene YNR033W): 0.9
- The level of expressed mRNA in the presence of chemical substance/The level of expressed mRNA in the absence of chemical substance (yeast gene YNR059W): 2.6
- The level of expressed mRNA in the presence of chemical substance/The level of expressed mRNA in the absence of chemical substance (yeast gene YOL058W): 1.2
- level of expressed mRNA in the presence/in the absence of chemical substance (yeast gene YOL086C): 1.1
- level of expressed mRNA in the presence/in the absence of chemical substance (yeast gene YOL108C): 1.5
- level of expressed mRNA in the presence/in the absence of chemical substance (yeast gene YOL116W): 1.1
- The level of expressed mRNA in the presence of chemical substance/The level of expressed mRNA in the absence of chemical substance (yeast gene YOL126C): 1.6
- The level of expressed mRNA in the presence of chemical substance/The level of expressed mRNA in the absence of chemical substance (yeast gene YOL153C): 1.1
- level of expressed mRNA in the presence/in the absence of chemical substance (yeast gene YOL156W): 0.9
- The level of expressed mRNA in the presence of chemical substance/The level of expressed mRNA in the absence of chemical substance (yeast gene YOL165C): 1.6
- level of expressed mRNA in the presence/in the absence of chemical substance (yeast gene YOR002W): 0.9
- level of expressed mRNA in the presence/in the absence of chemical substance (yeast gene YOR085W): 0.9
- The level of expressed mRNA in the presence of chemical substance/The level of expressed mRNA in the absence of chemical substance (yeast gene YOR099W): 1.2
- level of expressed mRNA in the presence/in the absence of chemical substance (yeast gene YOR103C): 1.1
- level of expressed mRNA in the presence/in the absence of chemical substance (yeast gene YOR108W): 1.1
- level of expressed mRNA in the presence/in the absence of chemical substance (yeast gene YOR128C): 1.2
- The level of expressed mRNA in the presence of chemical substance/The level of expressed mRNA in the absence of chemical substance (yeast gene YOR130C): 1.5
- level of expressed mRNA in the presence/in the absence of chemical substance (yeast gene YOR142W): 0.9
- level of expressed mRNA in the presence/in the absence of chemical substance (yeast gene YOR176W): 1.2
- level of expressed mRNA in the presence/in the absence of chemical substance (yeast gene YOR178C): 1.0
- level of expressed mRNA in the presence/in the absence of chemical substance (yeast gene YOR251C): 0.9
- The level of expressed mRNA in the presence of chemical substance/The level of expressed mRNA in the absence of chemical substance (yeast gene YOR336W): 1.0
- The level of expressed mRNA in the presence of chemical substance/The level of expressed mRNA in the absence of chemical substance (yeast gene YOR347C): 1.7
- level of expressed mRNA in the presence/in the absence of chemical substance (yeast gene YOR348C): 0.9
- The level of expressed mRNA in the presence of chemical substance/The level of expressed mRNA in the absence of chemical substance (yeast gene YPL017C): 1.3
- level of expressed mRNA in the presence/in the absence of chemical substance (yeast gene YPL028W): 1.4
- level of expressed mRNA in the presence/in the absence of chemical substance (yeast gene YPL057C): 2.2
- level of expressed mRNA in the presence/in the absence of chemical substance (yeast gene YPL135W): 1.5
- level of expressed mRNA in the presence/in the absence of chemical substance (yeast gene YPL148C): 1.0
- The level of expressed mRNA in the presence of chemical substance/The level of expressed mRNA in the absence of chemical substance (yeast gene YPR026W): 0.9
- level of expressed mRNA in the presence/in the absence of chemical substance (yeast gene YPR113W): 1.2
- level of expressed mRNA in the presence/in the absence of chemical substance (yeast gene YPR165W): 2.3
- The level of expressed mRNA in the presence of chemical substance/The level of expressed mRNA in the absence of chemical substance (yeast gene YPR167C): 1.7
- level of expressed mRNA in the presence/in the absence of chemical substance (yeast gene YPR183W): 1.2
